{
  "source": "patent US10085955B2",
  "about": "“Methods and compositions for treatment of demyelinating diseases” (Pathologica LLC, priority 2013, dated 2018)",
  "key": {"CNS-infiltrating cells": {"system": "CNS-infiltrating cells", "experiment": "Fourth MOG EAE protocol, flow cytometric analysis of CNS-infiltrating cells at onset and peak", "format": "in vivo, C57BL/6 mice", "description": "A fourth EAE experiment was run similarly to the above, but was designed to examine the effect of MGBG on cell populations during onset and peak disease. In this protocol, there were 3 experimental groups with 20 mice/group and 1 mock-immunized group with 8 mice. Fingolimod was dosed at 1 mpk QD, MGBG at 30 mpk BID, and the pertussis toxin was administered at 165 ng/dose for both injections. Flow cytometric analysis was performed on CNS-infiltrating cells from 16 mice from each of the vehicle-, fingolimod- and MGBG-treated groups, as well as from all mice in the mock-immunized group. Half of the analyzed mice from each group were collected at the time of EAE onset in the vehicle group and half were collected at the time of EAE peak in the vehicle group. Mouse termination was over eight separate days, because individual mouse in the vehicle group reached EAE onset and EAE peak on different days. Eight (8) of the mice in the vehicle group were sacrificed at each time-point. For each of these mice, a matching mouse from each of Groups 2 and 3 was sacrificed on the same day. For each two (2) of these vehicle group mice, a matching mouse from Group 4 was sacrificed. When selecting matching mice from other groups for termination, the mouse with the highest EAE score was chosen. If no mouse in the group had signs of EAE, a mouse was chosen at random."}, "[1]": {"design": "species or system DBA/1 mice", "conditions": "male, DBA/1, mouse, in vivo", "description": "Twenty-four male DBA/1 mice weighing 19.5-24.7 g and aged 7-9 weeks administered the test article, MGBG, as either a single bolus intravenous dose via a lateral tail vein of 1 mg/kg (Group 1, n=12) or as a single oral gavage dose of 10 mg/kg (Group 2, n=12). Each dose group consisted of 4 cohorts of 3 animals each. Group 1 was sampled at 5, 15, and 30 minutes after dosing; and 1, 2, 4, 8, and 24 hours after dosing. Group 2 was sampled at 1, 2, 4, 8, 12, 24, and 36 hours after dosing. Starting with the first time point, a new cohort was sampled at each successive time point up to the 1-hour (Group 1) or […] (Group 2) time point. The order of sampling among the cohorts was repeated for the subsequent time points (some cohorts may have been bled only once). The second bleed for each cohort was terminal. Animals were sacrificed via CO2 inhalation anesthesia after final blood collection.\nThe samples were centrifuged under refrigerated conditions following completion of sample collection at each interval. The resulting plasma was separated and stored frozen at approximately −70° C. until analysis. Analysis was performed by LC/MS/MS. Pharmacokinetic analyses were performed on the mean MGBG plasma concentration versus time data using the non-compartmental approach (linear trapezoidal rule for AUC calculations). The WinNonlin sparse sampling tool was used for PK calculations.\nThe second method used to convert the efficacious 60 mg/kg/day dose in mice to an equivalent dose in humans was based more directly on allometric scaling. Data from an MGBG pharmacokinetic study consisting of a 10 mg/kg oral dose in mice was modeled in a simulation to determine the theoretical AUCINF value for a dosing regimen of 30 mg/kg PO BID, which was 9050 h*ng/mL. Next, predicted human clearance values as determined by single- and multi-species allometric scaling were used to estimate doses likely to produce an exposure in humans (AUCINF) similar to that of the 60 mg/kg/day in mice. […] Using multi-species allometric scaling, the predicted human equivalent dose is about 4.2 mg/kg/day."}, "[2]": {"system": "MOG-induced experimental autoimmune encephalomyelitis (EAE)", "experiment": "Second MOG EAE protocol, clinical readouts", "format": "in vivo, C57BL/6 mice", "conditions": "second study; MGBG 30 mpk BID, fingolimod 1 mpk QD", "excerpt": "An experimental murine model of multiple sclerosis employing a myelin oligodendrocyte glycoprotein (MOG) peptide to induce experimental autoimmune encephalomyelitis (EAE) was employed to determine the efficacy of MGBG in preventing and treating that disease. Because of its many similarities to MS, EAE is commonly used to study pathogenesis of autoimmunity, CNS inflammation, demyelination, cell trafficking, and tolerance induction. EAE is characterized by paralysis (in some models the paralysis is remitting-relapsing), CNS inflammation and demyelination. EAE is mediated primarily by dendritic cells, myelin-specific T cells (e.g. Th1 and Th17), and M1 macrophages. B cells may also play a role in some models of EAE. Body weight also tracks disease progression. EAE is induced in C57BL/6 mice by immunization with MOG35-55 or MOG1-125 in CFA emulsion followed by administration of pertussis toxin (PTX) in PBS. The emulsion provides antigen which initiates expansion and differentiation of MOG-specific autoimmune T cells. PTX enhances EAE development by providing additional adjuvant and facilitating entrance of autoimmune T cells into the CNS. […]\nClinically, EAE progression is scored on a scale of 0 to 5, wherein each score represents the following clinical observations: […]"}},
  "note": "Entries after “also recorded” stand apart in the source; their conditions may differ. Where two headings read alike, the source gives them in different places. Marks after values point to notes of the source that are not given here.",
  "data": [
    {"smiles": "CC(/C=N/NC(=N)N)=N\\NC(=N)N", "note": "[MGBG, 1,1′ [methylethanediylidene]dinitrilodiguanidine]", "values": [
      {"measurement": "CD4+ IFNy+", "setting": "CNS-infiltrating cells; Onset", "value": "3.19 +/− # cells (10^3)"},
      {"measurement": "CD4+ IFNγ+", "setting": "CNS-infiltrating cells; Onset", "value": 9.57, "unit": "% cells"},
      {"measurement": "CD4+ IL-17A+ IFNy+", "setting": "CNS-infiltrating cells; Onset", "value": "1.56 +/− # cells (10^3)"},
      {"measurement": "CD4+ IL-17A+ IFNγ+", "setting": "CNS-infiltrating cells; Onset", "value": 4.14, "unit": "% cells"},
      {"measurement": "CD4+ IFNy+", "setting": "CNS-infiltrating cells; Peak", "value": "4.57 +/− # cells (10^3)"},
      {"measurement": "CD4+ IFNγ+", "setting": "CNS-infiltrating cells; Peak", "value": 9.37, "unit": "% cells"},
      {"measurement": "CD4+ IL-17A+ IFNy+", "setting": "CNS-infiltrating cells; Peak", "value": "3.01 +/− # cells (10^3)"},
      {"measurement": "CD4+ IL-17A+ IFNγ+", "setting": "CNS-infiltrating cells; Peak", "value": 5.45, "unit": "% cells"},
      {"measurement": "CNS infiltration by proinflammatory cells", "setting": "CNS-infiltrating cells; fourth study, MGBG 30 mpk BID", "value": "reduced"},
      {"measurement": "proportion and number of infiltrating dendritic cells", "setting": "CNS-infiltrating cells; fourth study, MGBG 30 mpk BID vs fingolimod 1 mpk QD", "value": "reduced in MGBG-treated mice more than in fingolimod-treated mice"},
      {"measurement": "CD11c+ of CD4− CD45.2+ high cells In Peak of Disease in Animals Without EAE Disease", "setting": "CNS-infiltrating cells; subset of animals which did not develop disease when vehicle-treated animals were at peak", "value": "2.93 +/− 0.37"},
      {"measurement": "Clobs", "setting": "[1]; iv, 1 mg/kg", "value": 49.6, "unit": "mL/min/kg"},
      {"measurement": "VSSobs", "setting": "[1]; iv, 1 mg/kg", "value": 38.3, "unit": "L/kg"},
      {"measurement": "Clobs", "setting": "[1]; po, 10 mg/kg", "value": 6.68, "unit": "mL/min/kg"},
      {"measurement": "Vd", "setting": "[1]; po, 10 mg/kg", "value": 38.3, "unit": "L/kg"},
      {"measurement": "EAE disease development / severity", "setting": "[2]", "value": "suppressed EAE comparably to 1 mpk fingolimod; also recorded: substantially reduced disease compared to that of the vehicle group; also recorded: efficacious at postponing disease onset and reducing EAE severity"}
    ]}
  ]
}
